Data taken from patent publication US20100130441A1, “USE OF VITAMIN B12 FOR TREATMENT OF MUCOSAL LESIONS” (priority 2007, published 2010).
“Also recorded” adds a separate entry of the source.

Columns and labels:
geriatric patients = conditions: cited from earlier work
[1] = test system: pernicious anemia patients presenting with tobacco amblyopia (optic neuropathy); conditions: four patients; parenteral; cyanocobalamin 0.25-1 mg per month, then changed to hydroxocobalamin; cited from earlier work
[2] = cited from earlier work
[3] = series of up to 12 injections with 5 mg; cited from earlier work
[4] = test system: recurrent aphthous stomatitis (RAS) patients; assay: Clinical experience: 15 RAS patients treated with vitamin B12 over four years; assay type: in vivo, human
Protocol: Fifteen patients suffering from RAS were treated with vitamin B12 in our clinics over a period of four years. In most cases they have presented to the clinic with unrelated symptoms, and the oral ulcers were incidental findings on physical examination. Patients were asked whether oral ulcers were a recurring problem. Before initiating vitamin B12 therapy, a complete blood count was done and plasma vitamin B12 and folic acid levels were assessed by routine procedures.
We used one of two therapeutic regimens: • IM injections of vitamin B12 (1000 mcg weekly for the first month, and then 1000 mcg monthly as maintenance therapy) for patients with serum vitamin B12 level below 100 pg/ml, for patients with peripheral neuropathy or macrocytic anemia, and for patients coming from a low socioeconomic level (in Israel, IM vitamin B12 treatment is cheaper than oral vitamin B12). • 2. One sublingual vitamin B12 tablet (1000 mcg) per day. • No other treatment was given for RAS throughout the treatment and follow-up periods. The follow-up period ranged from 3 months to 4 years.

[5] = test system: recurrent aphthous stomatitis (RAS) patients; assay: Double-blind, placebo-controlled, randomized clinical trial of vitamin B12 in RAS; assay type: in vivo, human
[6] = test system: recurrent aphthous stomatitis (RAS) patients; conditions: cited from earlier work
dialysis patients = conditions: cited from earlier work
[7] = test system: sleep-waking rhythm disorders; conditions: 1.5 to 3 mg/day for 8 weeks, n=13; cited from earlier work

## cyanocobalamin
Geriatric patients; 1 mg intramuscular weekly for 1 month, then monthly for minimum 6 months
  Cognitive functions: cognitive recovery in some patients
Geriatric patients; 1 mg intramuscular weekly then monthly
  Adverse effects: no adverse effects were reported
[1]
  Effect on haematological and visual abnormalities: restored the haematological, but not the visual abnormalities
[2]; Ellenbogen & Cooper, 1991
  Carcinogenic, mutagenic or teratogenic potential: no reports attributing carcinogenic or mutagenic or teratogenic potential

## hydroxocobalamin
[1]
  Effect on haematological and visual abnormalities: the visual impairment also improved
[3]
  Acne formation (cases): Ten

## vitamin B12 (cobalamin)
[4]; 2 deficient, 3 marginal, 10 normal level patients
  Outcome of treatment by initial vitamin B12 level (deficient or borderline vs normal): no difference in the outcome of treatment
[4]; 15 RAS patients, IM 1000 mcg weekly then monthly or sublingual 1000 mcg per day, mean treatment 10.8 ± 9.7 months, before treatment 1.5 ± 1.2
  Frequency of RAS during treatment (episodes/month), Mean: 0.1 ± 0.3 episodes/month
[4]; 15 RAS patients, before treatment range 0.3-4.0
  Frequency of RAS during treatment (episodes/month), Range: 0-1.0 episodes/month
[4]; IM vitamin B12
  Aphthous ulcers in two non-adherent patients once they received regular IM injections: disappeared completely
[4]; of 15 patients
  Patients reporting pronounced reduction in the frequency and severity of RAS episodes: four
[5]; double-blind, placebo-controlled, randomized
  Safety and effectiveness of vitamin B12 therapy for RAS: confirmed the safety and effectiveness; also recorded: established the safety and effectiveness
[5]; pain, number of ulcers, duration of outbreak
  Dependence of patient outcome on initial level of vitamin B12: did not depend on initial level of vitamin B12
[6]; three patients with low serum vitamin B12
  Clinical response of RAS to vitamin B12 administration: rapid improvement and complete recovery within several weeks
[6]; three patients
  Recurrence of RAS at six months' follow up: no recurrence of RAS
Dialysis patients; 2.5 mg vitamin B12 in multivitamin preparation, 3 years
  Adverse effects: no adverse effects were reported
Dialysis patients; 106 patients, multivitamin preparation with 2.5 mg vitamin B12 at end of each dialysis period during 3 years
  Serum vitamin B12 levels at the end of the treatment period: 4 times greater than normal
[7]
  Adverse effects: no adverse effects recorded
[2]; 1-5 mg every fortnight or month, up to at least 5 years, patients with compromised absorption
  Adverse effects of long-term oral and parenteral supplementation: without any identified adverse effects
[2]; healthy individuals, EC Scientific Committee on Food opinion
  Adverse effects of excess vitamin B12 intake from food or supplements: no adverse effects
[2]; oral or intramuscular dosages between 1-5 mg
  Adverse effects in replacement therapy: no supportive evidence of adverse effects
[2]; up to 1000 mcg/day orally, patients with compromised B12 absorption
  Adverse effects of prolonged oral treatment: adverse effects have not been reported
